# Test results as given in US6245917A, “Crystalline sodium phenytoin monohydrate” (Warner-Lambert Company, priority 1999, dated 2001).
# Assay: Preliminary solubility studies, ethanol versus water
# Assay type: physicochemical
smiles,measurement,value
O=C1NC(=O)C(c2ccccc2)(c2ccccc2)N1 [sodium phenytoin],solubility in ethanol compared with water,less soluble in ethanol than it is in water
